The first assay addresses T1, ΔF508-CFTR (Homo sapiens, UniProt P13569, DEL508-508).
T1 construct: expressed in transfected cells
Nature of the assay: Membrane potential optical assay (FRET voltage-sensor dyes, VIPR), identification of potentiator compounds. It counts as cell-based. Conditions: Table 3; assay not given. The method in brief:
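NIH3T3 mouse fibroblasts stably expressing ΔF508-CFTR, cultured 24 h at 27 °C, were loaded with FRET voltage dyes CC2-DMPE and DiSBAC2(3). Double-addition format: first addition of Cl⁻-free (gluconate) medium with or without compound; membrane-potential change read as fluorescence on VIPR II.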
T1 sequence (P13569 with tags, fused parts or gaps DEL508-508): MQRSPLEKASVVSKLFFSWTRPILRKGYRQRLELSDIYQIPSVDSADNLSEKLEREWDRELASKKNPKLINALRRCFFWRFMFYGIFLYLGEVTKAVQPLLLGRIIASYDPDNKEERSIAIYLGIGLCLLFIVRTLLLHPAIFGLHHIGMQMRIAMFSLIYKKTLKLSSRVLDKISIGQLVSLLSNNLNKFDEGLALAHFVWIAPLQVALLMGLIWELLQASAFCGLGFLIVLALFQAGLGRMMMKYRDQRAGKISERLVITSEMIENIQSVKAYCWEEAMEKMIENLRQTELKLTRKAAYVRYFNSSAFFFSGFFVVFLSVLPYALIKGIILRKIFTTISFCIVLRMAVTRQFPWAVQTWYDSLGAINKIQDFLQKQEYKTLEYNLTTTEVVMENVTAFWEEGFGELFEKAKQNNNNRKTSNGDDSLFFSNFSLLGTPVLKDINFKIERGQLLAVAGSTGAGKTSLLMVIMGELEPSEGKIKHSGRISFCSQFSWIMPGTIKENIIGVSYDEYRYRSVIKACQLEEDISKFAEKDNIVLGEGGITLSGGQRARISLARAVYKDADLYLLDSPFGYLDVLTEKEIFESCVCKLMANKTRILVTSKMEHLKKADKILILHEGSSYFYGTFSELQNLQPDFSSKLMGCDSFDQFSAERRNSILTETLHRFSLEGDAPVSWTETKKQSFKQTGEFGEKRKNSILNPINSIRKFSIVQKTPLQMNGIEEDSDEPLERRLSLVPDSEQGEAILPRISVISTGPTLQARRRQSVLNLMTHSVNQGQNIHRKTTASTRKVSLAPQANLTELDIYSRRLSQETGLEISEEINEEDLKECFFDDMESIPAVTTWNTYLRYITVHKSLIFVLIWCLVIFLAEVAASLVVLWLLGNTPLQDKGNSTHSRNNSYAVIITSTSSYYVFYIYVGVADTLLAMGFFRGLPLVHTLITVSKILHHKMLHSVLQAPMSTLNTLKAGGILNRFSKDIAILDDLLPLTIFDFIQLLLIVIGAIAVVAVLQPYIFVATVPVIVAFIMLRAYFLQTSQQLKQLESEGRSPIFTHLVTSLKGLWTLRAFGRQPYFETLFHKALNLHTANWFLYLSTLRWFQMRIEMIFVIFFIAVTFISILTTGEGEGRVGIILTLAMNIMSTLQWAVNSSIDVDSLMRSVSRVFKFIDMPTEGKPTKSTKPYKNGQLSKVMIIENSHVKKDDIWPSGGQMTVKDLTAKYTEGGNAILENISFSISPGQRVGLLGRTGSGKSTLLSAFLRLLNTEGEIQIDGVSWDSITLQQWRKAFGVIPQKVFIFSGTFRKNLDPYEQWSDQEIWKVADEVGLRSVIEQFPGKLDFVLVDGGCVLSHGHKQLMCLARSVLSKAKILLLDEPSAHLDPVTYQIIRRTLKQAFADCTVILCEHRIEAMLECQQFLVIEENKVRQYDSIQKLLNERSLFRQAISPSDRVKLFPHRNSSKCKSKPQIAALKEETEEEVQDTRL
As usually defined, the EC50 is the concentration that produces a half-maximal response. For the compound `CC(C)c1ccc(NC(=O)c2c[nH]c3ccc(F)cc3c2=O)cc1O` [Compound 597, 6-fluoro-N-(3-hydroxy-4-isopropyl-phenyl)-4-oxo-1H-quinoline-3-carboxamide], the EC50 is less than 10 µM. As for `CS(=O)(=O)Nc1cc(NC(=O)c2c[nH]c3ccccc3c2=O)cc(C(F)(F)F)c1` [Compound 441, N-[3-methylsulfonylamino-5-(trifluoromethyl)phenyl]-4-oxo-1H-quinoline-3-carboxamide], the EC50 is less than 10 µM.

Still in this assay, the particulars now being: Table 3; assay not given; read-out: % Activity (% Efficacy, relative efficacy).
With `CCOc1ccc(OCC)c(NC(=O)c2c[nH]c3ccccc3c2=O)c1` [Compound 264, N-(2,5-diethoxyphenyl)-4-oxo-1H-quinoline-3-carboxamide], the Emax lay in the range of 25 to 100%. With `CC(C)(C)c1ccc(NC(=O)c2c[nH]c3ccccc3c2=O)cc1O` [Compound 428, N-(3-hydroxy-4-tert-butyl-phenyl)-4-oxo-1H-quinoline-3-carboxamide], the Emax was 25 to 100%. Same read-out and setting: in the case of `CC(C)(C)c1ccc(NC(=O)c2cnc3ccccc3c2OCc2ccccc2)cc1O` [Compound 275, 4-Benzyloxy-N-(3-hydroxy-4-tert-butyl-phenyl)-quinoline-3-carboxamide] it was 25 to 100%; in that of `O=C(Nc1cc(Cl)ccc1Oc1ccccc1)c1c[nH]c2ccccc2c1=O` [Compound 292, N-(5-chloro-2-phenoxy-phenyl)-4-oxo-1H-quinoline-3-carboxamide], 25 to 100%; in that of `CC(C)c1ccc(NC(=O)c2c[nH]c3ccc(F)cc3c2=O)cc1O` [Compound 597, 6-fluoro-N-(3-hydroxy-4-isopropyl-phenyl)-4-oxo-1H-quinoline-3-carboxamide], 25 to 100%.

Regarding `CCOC(=O)c1cc2cc[nH]c2cc1NC(=O)c1c[nH]c2ccccc2c1=O` [Compound 188, 6-[(4-oxo-1H-quinolin-3-yl)carbonylamino]-1H-indole-5-carboxylic acid ethyl ester], the Emax lay in the range of 25 to 100%. On the same count and under the same terms, in the case of `CCc1ccc(Cl)c(CC)c1NC(=O)c1c[nH]c2ccccc2c1=O` [Compound 91, N-(3-chloro-2,6-diethyl-phenyl)-4-oxo-1H-quinoline-3-carboxamide] it was 25 to 100%.

As for `CC(C)c1ccc(NC(=O)c2c[nH]c3cc(F)c(F)cc3c2=O)c(C(F)(F)F)c1` [Compound 589, 6,7-difluoro-N-[4-isopropyl-2-(trifluoromethyl)phenyl]-4-oxo-1H-quinoline-3-carboxamide], the Emax was in the range of 25 to 100%. On to `CC1(c2cc(F)c(NC(=O)c3c[nH]c4ccc(F)cc4c3=O)cc2O)CCCCC1` [Compound 218, 6-fluoro-N-[2-fluoro-5-hydroxy-4-(1-methylcyclohexyl)-phenyl]-4-oxo-1H-quinoline-3-carboxamide], for which the Emax was 25 to 100%.

Take `O=C(Nc1ccc(C23CC4CC(CC(C4)C2)C3)cc1)c1c[nH]c2ccccc2c1=O` [Compound 455, N-[4-(1-adamantyl)phenyl]-4-oxo-1H-quinoline-3-carboxamide]: the Emax was 25 to 100%.

As to `C[C@H]1CCCCN1c1ccc(NC(=O)c2c[nH]c3ccccc3c2=O)c(C(F)(F)F)c1` [Compound 713, (S)-N-(4-(2-methylpiperidin-1-yl)-2-(trifluoromethyl)phenyl)-4-oxo-1,4-dihydroquinoline-3-carboxamide], the Emax was more than 100%. The same measure, in the same setting: in the case of `CS(=O)(=O)Nc1cc(NC(=O)c2c[nH]c3ccccc3c2=O)cc(C(F)(F)F)c1` [Compound 441, N-[3-methylsulfonylamino-5-(trifluoromethyl)phenyl]-4-oxo-1H-quinoline-3-carboxamide] it was 25 to 100%. `CC1(c2ccc(NC(=O)c3c[nH]c4ccccc4c3=O)cc2)COC1` [Compound 523, N-[4-(3-methyloxetan-3-yl)phenyl]-4-oxo-1H-quinoline-3-carboxamide]: the Emax is 25 to 100%. In the case of `O=C(Nc1ccccc1Oc1ncc(C(F)(F)F)cc1Cl)c1c[nH]c2ccccc2c1=O` [Compound 42, N-[2-[[3-chloro-5-(trifluoromethyl)-2-pyridyl]oxy]phenyl]-4-oxo-1H-quinoline-3-carboxamide], the Emax is 25 to 100%. Consider `O=C(Nc1ccc(N2CCCC2)cc1C(F)(F)F)c1c[nH]c2ccc(F)cc2c1=O` [Compound 562, 6-fluoro-4-oxo-N-[4-pyrrolidin-1-yl-2-(trifluoromethyl)phenyl]-1H-quinoline-3-carboxamide], for which the Emax was 25 to 100%. In the case of `CC(C)(C)c1c[nH]c2cc(NC(=O)c3c[nH]c4ccccc4c3=O)ccc12` [Compound 478, 4-oxo-N-(3-tert-butyl-1H-indol-6-yl)-1H-quinoline-3-carboxamide], the Emax was in the range of 25 to 100%.

`Cc1ccc2[nH]cc(C(=O)Nc3cc(O)c(C(C)(C)C)cc3C(C)(C)C)c(=O)c2c1` [Compound 688, N-(5-hydroxy-2,4-ditert-butyl-phenyl)-6-methyl-4-oxo-1H-quinoline-3-carboxamide]: the Emax is 25 to 100%. `Cc1cccc(-c2ccccc2NC(=O)c2c[nH]c3ccccc3c2=O)c1C` [Compound 401, N-[2-(2,3-dimethylphenyl)phenyl]-4-oxo-1H-quinoline-3-carboxamide]: the Emax lay within 25 to 100%. On to `Cc1cc(NC(=O)c2c[nH]c3ccccc3c2=O)ccc1F` [Compound 257, N-(4-fluoro-3-methyl-phenyl)-4-oxo-1H-quinoline-3-carboxamide], for which the Emax was 25 to 100%. As to `Cc1cccc2[nH]cc(C(=O)Nc3ccc(N4CCC(F)(F)C4)cc3C(F)(F)F)c(=O)c12` [Compound 528, N-[4-(3,3-difluoropyrrolidin-1-yl)-2-(trifluoromethyl)phenyl]-5-methyl-4-oxo-1H-quinoline-3-carboxamide], the Emax fell in the range of 25 to 100%. For the compound `COC(=O)c1ccc(-c2ccccc2NC(=O)c2c[nH]c3ccccc3c2=O)cc1` [Compound 166, 4-[2-[(4-oxo-1H-quinolin-3-yl)carbonylamino]phenyl]benzoic acid methyl ester], the Emax lay in the range of 25 to 100%. As to `CN(C)CCNC(=O)c1ccc(-c2cc3cc[nH]c3cc2NC(=O)c2c[nH]c3ccccc3c2=O)cc1` [Compound 347, N-[5-[4-(2-dimethylaminoethylcarbamoyl)phenyl]-1H-indol-6-yl]-4-oxo-1H-quinoline-3-carboxamide], the Emax was in the range of 25 to 100%. On the same count and under the same terms, in the case of `COc1cc(NC(=O)c2c[nH]c3cccc(O)c3c2=O)cc(C(F)(F)F)c1` [Compound 502, 5-hydroxy-N-[3-methoxy-5-(trifluoromethyl)phenyl]-4-oxo-1H-quinoline-3-carboxamide] it was 25 to 100%. For the compound `N#Cc1ccccc1NC(=O)c1c[nH]c2ccccc2c1=O` [Compound 95, N-(2-cyanophenyl)-4-oxo-1H-quinoline-3-carboxamide], the Emax was 25 to 100%. `CC1CCN(S(=O)(=O)c2ccc3[nH]cc(C(=O)Nc4cc5[nH]ccc5cc4C(C)(C)C)c(=O)c3c2)CC1` [Compound 51, 6-[(4-methyl-1-piperidyl)sulfonyl]-4-oxo-N-(5-tert-butyl-1H-indol-6-yl)-1H-quinoline-3-carboxamide]: the Emax lay within 25 to 100%. Take `Nc1cc(NC(=O)c2c[nH]c3ccccc3c2=O)ccc1OC(F)(F)F` [Compound 58, N-[3-amino-4-(trifluoromethoxy)phenyl]-4-oxo-1H-quinoline-3-carboxamide]: the Emax fell in the range of 25 to 100%. Take `Cc1cc(C2CCCCC2)ccc1NC(=O)c1c[nH]c2ccccc2c1=O` [Compound 647, N-(4-cyclohexyl-2-methyl-phenyl)-4-oxo-1H-quinoline-3-carboxamide]: the Emax lay within 25 to 100%. As to `CCOc1ccccc1-c1cc2cc[nH]c2cc1NC(=O)c1c[nH]c2ccccc2c1=O` [Compound 327, N-[5-(2-ethoxyphenyl)-1H-indol-6-yl]-4-oxo-1H-quinoline-3-carboxamide], the Emax fell in the range of 25 to 100%. In the case of `O=C(Nc1ccc2c(c1)NCCO2)c1c[nH]c2ccccc2c1=O` [Compound 105, 1,4-dihydro-N-(3,4-dihydro-2H-benzo[b][1,4]oxazin-6-yl)-4-oxoquinoline-3-carboxamide], the Emax was in the range of 25 to 100%.

On to `O=C(Nc1ccc2c(c1)OCO2)c1c[nH]c2ccccc2c1=O` [Compound 437, N-benzo[1,3]dioxol-5-yl-4-oxo-1H-quinoline-3-carboxamide], for which the Emax was less than 25%. Still for that read-out and setting: next, `O=C(Nc1ccccc1N1CCCCC1)c1c[nH]c2ccccc2c1=O` [Compound 26, 4-oxo-N-[2-(1-piperidyl)phenyl]-1H-quinoline-3-carboxamide]: 25 to 100%. Regarding `O=C(Nc1ccc(N2CCN(CCO)CC2)cc1C(F)(F)F)c1c[nH]c2ccccc2c1=O` [Compound 673, N-[4-[4-(2-hydroxyethyl)piperazin-1-yl]-2-(trifluoromethyl)phenyl]-4-oxo-1H-quinoline-3-carboxamide], the Emax lay within 25 to 100%. Turning to `O=C(Nc1ccccc1-c1ccccc1Oc1ccccc1)c1c[nH]c2ccccc2c1=O` [Compound 247, 4-oxo-N-[2-(2-phenoxyphenyl)phenyl]-1H-quinoline-3-carboxamide], the Emax lay in the range of 25 to 100%. Regarding `O=C(Nc1cccc2cc[nH]c12)c1c[nH]c2ccccc2c1=O` [Compound 37, N-(1H-indol-7-yl)-4-oxo-1H-quinoline-3-carboxamide], the Emax was 25 to 100%. Turning to `CCc1cc(C(C)(C)C)c(O)cc1NC(=O)c1c[nH]c2ccccc2c1=O` [Compound 659, N-(2-ethyl-5-hydroxy-4-tert-butyl-phenyl)-4-oxo-1H-quinoline-3-carboxamide], the Emax was in the range of 25 to 100%. As to `CC(C)OC(=O)c1cccc(-c2ccccc2NC(=O)c2c[nH]c3ccccc3c2=O)c1` [Compound 71, 3-[2-[(4-oxo-1H-quinolin-3-yl)carbonylamino]phenyl]benzoic acid isopropyl ester], the Emax lay within 25 to 100%. Turning to `O=C(Nc1ccc2c(c1)OC(F)(F)C(F)(F)O2)c1c[nH]c2ccccc2c1=O` [Compound 440, N-(2,2,3,3-tetrafluoro-2,3-dihydrobenzo[b][1,4]dioxin-6-yl)-1,4-dihydro-4-oxoquinoline-3-carboxamide], the Emax was 25 to 100%.

Take `Cc1ccc2c(=O)c(C(=O)Nc3cc(O)c(C(C)(C)C)cc3C(C)(C)C)c[nH]c2c1` [Compound 640, N-(5-hydroxy-2,4-ditert-butyl-phenyl)-7-methyl-4-oxo-1H-quinoline-3-carboxamide]: the Emax is more than 100%.

In the case of `O=C(Nc1ccccc1Oc1ccc(Cl)cc1Cl)c1c[nH]c2ccccc2c1=O` [Compound 245, N-[2-(2,4-dichlorophenoxy)phenyl]-4-oxo-1H-quinoline-3-carboxamide], the Emax lay in the range of 25 to 100%.

(Values after patent US8802700B2 (Vertex Pharmaceuticals Incorporated, priority 2010, dated 2014).)
